Assay results: patent US20210115000A1, “NILE RED DERIVATIVES FOR IMPROVED RATIOMETRIC IMAGING FOR NERVE SPECIFIC CONTRAST” (Oregon Health & Sciences University, priority 2018, published 2021)

Tests used:
[1] = Spectroscopic analysis: absorbance, emission and quantum yield of Nile Red derivatives; type: physicochemical; conditions: in DMSO; for QY (quantum yield): standard Rhodamine B
Protocol: Tandem liquid chromatography mass spectroscopy (LCMS) analysis (Agilent 1260 LC system with a 6224 time of flight (TOF) MS, Agilent, Santa Clara, Calif.) was performed using a 2.7 micron C18 column (4.6×50 mm, Agilent). High performance liquid chromatography (HPLC) purification (Agilent 1260 system with a preparative pump) was performed using a 5 micron C18 column (21.2×150 mm, Agilent). For both HPLC and LCMS, the mobile phase consisted of HPLC grade acetonitrile and water, treated with 0.1% formic acid. Spectroscopic analysis was performed on a Spectramax M5 spectrometer (Molecular Devices, Sunnyvale, Calif.) using a quartz cuvette with a 1 cm pathlength. Quantum yield was calculated according to equation (1).
Where Ø is the quantum yield, F is the integrated fluorescence intensity, f is the absorbance at the excitation wavelength and n is the refractive index of the solvent. S refers to the quantum yield standard (Rhodamine B)^25 and X refers to the unknown sample.

[2] = test system: U2OS human osteosarcoma cell line; experiment: Nile Red derivative cell staining and imaging, fixed and live cells; type: cell-based; conditions: 1 μM; for fluorescence intensity in fixed cells: U2OS fixed with 4% PFA, imaged without washing; for fluorescence intensity in live cells without washing / structures observed in live cells without washing: U2OS live, imaged in staining solution
Protocol: The U2OS human osteosarcoma cell line was cultured in Dulbecco's Modified Eagle Medium (DMEM, Thermo Fisher Scientific, Waltham, Mass.) with 10% fetal bovine serum (FBS, VWR, Radnor, Pa.) and 1% Penicillin/Steptomycin 100× (Thermo Fisher Scientific) at 37° C. in 5% CO2. For live cell imaging studies, Fluorobrite DMEM media (Thermo Fisher Scientific) was used in place of DMEM. For imaging studies, cells were grown in 96-well glass bottom plates (Cellvis, Mountain View, Calif.) for 48 hours, with a final confluence of <80%. Nile Red and its derivatives were prepared at 1-10 mM stock concentration in DMSO and diluted into media or buffer for cell staining and imaging studies.
Cell staining studies were completed on fixed and live U2OS cells using Nile Red and each synthesized Nile Red derivative described as follows. For fixed cell staining, cells were washed once with 1× phosphate buffered saline (PBS), then fixed with 4% paraformaldehyde (PFA) for 20 minutes at room temperature. The PFA was removed and each well was washed three times for 5 mins per wash (3×5 mins) with 1×PBS. The Nile Red fluorophores were diluted into 1×PBS to a final concentration of 1 μM, incubated for 5 minutes with the cells, and images were collected without washing. Live cell staining was completed using two methods. First, cells were washed once with Fluorobrite DMEM. The Nile Red fluorophore solution was prepared in Fluorobrite DMEM by diluting to a final concentration of 1 μM for staining, where cells were stained for 5 minutes. The fluorophore containing media was removed and the cells were fixed for 20 minutes using 4% PFA. Cells were then washed 3×5 mins with Fluorobrite DMEM prior to imaging. Second, cells were washed with Fluorobrite DMEM without FBS once for 5 minutes. Nile Red fluorophore solutions were prepared in Fluorobrite without FBS at 1 μM final concentration for cell staining. The cells were stained with the prepared solution for 5 minutes and imaged in the staining solution. All images were collected at their ideal exposure times to permit visualization of stained intracellular structures.
All ex vivo and cellular fluorescence and white light images were collected using a Zeiss AxioObserver inverted fluorescence microscope (Carl Zeiss, Oberkochen, Germany). All cell images were collected at 40× magnification and all tissue section images were collected at 10× magnification. Fluorescence excitation was completed using a Photofluor II broad band light source (89 North, Burlington, Vt.) filtered with a 545±12.5 nm bandpass excitation filter. Fluorescence images were collected using a 605±35 nm bandpass emission filter and a AxioCam 506 monochromo camera (Zeiss). All Filters were Purchased from Chroma Technologies (Bellows Falls, Vt.).

[3] = test system: sciatic nerve or brachial plexus nerve sites (adipose, nerve, muscle tissue); experiment: In vivo imaging following direct/topical administration on rodent nerve sites; design: species or system male CD-1 mice; conditions: immediately following direct administration
Source text: In vivo images were acquired using a previously published, custom-built small animal fluorescence imaging system, described briefly here.^27 Fluorescent images were obtained using a Qimaging EXi Blue monochrome camera (Surrey, British Columbia, CA) with a removable Bayer mask for collection of co-registered color and fluorescence images. A Photofluor II broad band light source (89 North) was expanded onto the surgical field through a liquid light guide and used unfiltered for white light illumination. Nile Red and NR5 were excitated using a 545 t 12.5 nm bandpass filter, while fluorescence emission images were collected with a 605±35 nm bandpass filter. Oxazine 4 (Exciton, West Chester, Ohio) was used for nerve and adipose co-staining and ratiometic imaging studies. Oxazine 4 was excited using a 620±30 nm bandpass filter, while fluorescence emission images were collected through a 700±37.5 nm bandpass filter. Approval for the use of animals in the study was obtained from the Institutional Animal Care and Use Committee (IACUC) at Oregon Health and Science University (OHSU). In vivo staining studies were carried out on male CD-1 mice using an optimized direct/topical administration protocol.^2 Staining was performed concurrently on no more than two nerve sites (sciatic nerve or brachial plexus) per mouse. Nile Red and all Nile Red derivatives were formulated in a previously published co-solvent formulation (10% DMSO, 5% Kolliphor, 63.75% serum and 21.25% PBS^14) at a final concentration of 100 μM. Each formulated fluorophore was incubated for 5 minutes on the nerve site (n=4 nerve sites/fluorophore), followed by 9 short flushes with PBS. The nerve site was then incubated with blank co-solvent not containing fluorophore for 5 minutes, followed again by 9 short flushes with PBS.

[4] = test system: nerve, adipose and muscle tissue at nerve sites; experiment: In vivo co-staining with Oxazine 4, ratiometric imaging and ROC curve analysis; design: species or system male CD-1 mice; conditions: 30 min after staining compared to immediately following staining
Source text: In vivo images were acquired using a previously published, custom-built small animal fluorescence imaging system, described briefly here.^27 Fluorescent images were obtained using a Qimaging EXi Blue monochrome camera (Surrey, British Columbia, CA) with a removable Bayer mask for collection of co-registered color and fluorescence images. A Photofluor II broad band light source (89 North) was expanded onto the surgical field through a liquid light guide and used unfiltered for white light illumination. Nile Red and NR5 were excitated using a 545 t 12.5 nm bandpass filter, while fluorescence emission images were collected with a 605±35 nm bandpass filter. Oxazine 4 (Exciton, West Chester, Ohio) was used for nerve and adipose co-staining and ratiometic imaging studies. Oxazine 4 was excited using a 620±30 nm bandpass filter, while fluorescence emission images were collected through a 700±37.5 nm bandpass filter. Approval for the use of animals in the study was obtained from the Institutional Animal Care and Use Committee (IACUC) at Oregon Health and Science University (OHSU). In vivo staining studies were carried out on male CD-1 mice using an optimized direct/topical administration protocol.^2 Staining was performed concurrently on no more than two nerve sites (sciatic nerve or brachial plexus) per mouse. Nile Red and all Nile Red derivatives were formulated in a previously published co-solvent formulation (10% DMSO, 5% Kolliphor, 63.75% serum and 21.25% PBS^14) at a final concentration of 100 μM. Each formulated fluorophore was incubated for 5 minutes on the nerve site (n=4 nerve sites/fluorophore), followed by 9 short flushes with PBS. The nerve site was then incubated with blank co-solvent not containing fluorophore for 5 minutes, followed again by 9 short flushes with PBS. In vivo co-staining was completed with (1) Nile Red and Oxazine 4 as well as (2) NR5 and Oxazine 4. For these studies, co-solvent formulated Oxazine 4 ([…]) was incubated on the nerve site for 5 minutes followed by 9 short flushes with PBS. The co-solvent formulated Nile Red or NR5 (100 μM) was then incubated on the nerve site for 5 minutes and also followed by 9 short flushes with PBS. Co-registered (1) Nile Red and Oxazine 4 or (2) NR5 and Oxazine 4 images were collected from n=4 nerve sites per groups (1) and (2). Ratiometric images were calculated and quantified using region of interest analysis on the white light images to identify the nerve, adipose and muscle tissue types. Due to the known cross talk of Oxazine 4 into the Nile Red channel,^2 the Oxazine 4 image was subtracted from the Nile Red or NR5 image resulting in an image of only adipose. The ratiometric images were then calculated as the Oxazine 4 image minus the corrected Nile Red or NR5 image divided by the corrected Nile Red or NR5 image. Receiver Operator Characteristic (ROC) curve analysis was performed to assess differences between the ratiometric images, where the area under the curve (AUC) was used as the metric to differentiate between groups (1) and (2) using custom written MatLab code.^28

[5] = U2OS, fixed and washed prior to imaging

Row | SMILES | Max Abs [1] [nm] | Max Em [1] [nm] | Stokes Shift [1] [nm] | QY (quantum yield) [1] | fluorescence intensity in fixed cells ([2]; 5 min) | fluorescence intensity in live cells without washing ([2]; 5 min) | structures observed in live cells without washing ([2]; 5 min) | adipose to muscle ratio [3] | adipose to nerve ratio [3] | exposure time in cells stained live, then fixed ([2]; U2OS, 5 min, fixed and washed prior to imaging) | staining pattern in cells stained live, then fixed [2, 5] | ROC AUC of nerve-to-muscle contrast, change [4]
1 | CCN(CC)c1ccc2nc3c4ccc(-c5ccc(N)cc5)cc4c(=O)cc-3oc2c1 [NR1] | 555 | 635 | 80 | 0.08 | brighter in vitro fluorescence than NR12 | brighter than other Nile Red derivatives with higher quantum yields such as NR12 and NR6 | Prominent lipid droplet like structures | lower than Nile Red, adipose to muscle contrast was similar | increased contrast over control autofluorescence with similar adipose to nerve contrast | – | – | –
2 | CCN(CC)c1ccc2nc3c4cc(C#Cc5ccc(C=O)c(S(C)(=O)=O)c5)ccc4c(=O)cc-3oc2c1 [NR6, 4-((9-(diethylamino)-5-oxo-5H-benzo[a]phenoxazin-2-yl)ethynyl)-2-(methylsulfonyl)benzaldehyde] | 570 | 640 | 70 | 0.45 | – | – | – | – | increased contrast over control autofluorescence with similar adipose to nerve contrast | less than 10 sec | more cytoplasmic structures were stained | –
3 | CCN(CC)c1ccc2nc3c4cc(C#Cc5cccc(N)c5)ccc4c(=O)cc-3oc2c1 [NR7, 2-((3-aminophenyl)ethynyl)-9-(diethylamino)-5H-benzo[a]phenoxazin-5-one] | 565 | 640 | 75 | 0.14 | – | – | – | – | – | – | more cytoplasmic structures were stained | –
4 | CCN(CC)c1ccc2nc3c4cc(C#Cc5cccc(C=O)c5)ccc4c(=O)cc-3oc2c1 [NR8, 3-((9-(diethylamino)-5-oxo-5H-benzo[a]phenoxazin-2-yl)ethynyl)benzaldehyde] | 565 | 640 | 75 | 0.48 | bright | brightest of the synthesized derivatives | – | – | – | – | – | –
5 | CCN(CC)c1ccc2nc3c4cc(C#Cc5cc(C=O)ccc5OC)ccc4c(=O)cc-3oc2c1 [NR9, 3-((9-(diethylamino)-5-oxo-5H-benzo[a]phenoxazin-2-yl)ethynyl)-4-methoxybenzaldehyde] | 565 | 640 | 75 | 0.48 | – | – | Prominent lipid droplet like structures | – | – | – | – | –
6 | CCN(CC)c1ccc2nc3c4cc(-c5ccc(N)cc5)ccc4c(=O)cc-3oc2c1 [NR10, 2-(4-aminophenyl)-9-(diethylamino)-5H-benzo[a]phenoxazin-5-one] | 555 | 635 | 80 | 0.04 | – | – | – | lower than Nile Red, adipose to muscle contrast was similar | increased contrast over control autofluorescence with similar adipose to nerve contrast | – | more cytoplasmic structures were stained | –
7 | CC/N=c1/cc2oc3cc(NCC)c(C)cc3nc-2cc1C [Oxazine 4, reference compound] | – | – | – | – | – | – | – | – | – | – | – | improved values
